Like-named read-outs stand apart in the source and are kept apart here.
Experiments:
[1] = Acute toxicity test (oral); set-up: species or system mouse (ddY-strain); details: mouse, in vivo, male ddY mice, fasted 20 h, deaths over 7 days
Description: The test compounds of the present invention suspended in 0.5% aqueous solution of carboxymethylcellulose (C.M.C.) were orally administered to groups of 4 to 6 ddY-strain male mice (weighing about 19 g) which had fasted for 20 hours. The lethal dose was determined by the number of deaths for 7 days thereafter.

Blood Glucose = assay: Hypoglycemic effect in glucose-loaded fasted rats (blood glucose); format: in vivo, rat (Wistar-strain); details: 2 h
Description: Groups of 7 Wistar-strain male rats (weighing about 200 g) which were fasted for 18 hours were used for measurement of hypoglycemic effect according to the modified method by Dulin et al. [Dulin, W. L. et al., Proc. Soc. Expl. Med., 107, 245 (1961)]. That is, 0.5 ml/100 g of 20% aqueous solution of glucose was subcutaneously administered to the backs of rats to prevent a decrease in blood glucose level because of the fasting. Immediately thereafter the test drug suspended in 0.5% aqueous C.M.C. solution was orally given, and 2 hours later, the animals underwent laparotomy under pentobarbital anesthesia, then blood was drawn from the vena cava. The obtained blood sample was allowed to stand for 30 minutes to complete the coagulation and was centrifuged to obtain the serum. Blood sugar level was measured according to the mutalotase GOD method [Trinder, Ann. Clin. Biochem., 6, 24 […]]. Asterisks indicate significant differences (*: p<0.05, **: p<0.01, ***: p<0.001) from the control.

Serum Triglyceride = assay: Hypolipidemic effect: serum triglyceride; format: in vivo, rat (Wistar-strain); details: 100 mg/kg oral, 2 h; for Serum Triglyceride Level: control 65 ± 5 (compounds 2-12), 57 ± 4 (compounds 15-29); for inhibition in vivo at 100 mg/kg: Rattus norvegicus, vs control, read-out: Serum Triglyceride Decrease
Description: (§1) The test drugs suspended in 0.5% aqueous C.M.C. solution were orally administered to groups of 8 Wistar-strain male rats (weighing about 185 g) which were fasted for 18 to 20 hours. 2 hours later, the serum was obtained in the same manner described in (2). Serum triglyceride was measured according to the GPO-p-chlorophenol colorimetric determination [Richard W. Spayd et al., Clinical Chemistry, 24, 1343 (1978)], serum free fatty acid was measured according to the Acyl CoA Synthetase-Acyl CoA Oxidase method [Shimizu S. et al., Biochem. Biophys. Res. Commun., 91, 108 (1979)], free fatty acid was measured according to the enzymatic method [Charles C. Allain et al., Clin. Chem., 20, No. 4, 470 (1974)] and total cholesterol was measured according to the enzymatic method [Takayama M. et al., Clinica Chimica Acta, 79, 93 (1977)]. Asterisks indicate significant differences (*: p<0.05, **: p<00.01, ***: p<0.001) from the control.

Serum Free Fatty Acid = assay: Hypolipidemic effect: serum free fatty acid; format: in vivo, rat (Wistar-strain); details: 100 mg/kg oral, 2 h; for Serum Free Fatty Acid Level: control 0.53 ± 0.03 (compounds 2-12), 0.52 ± 0.03 (compounds 15-24); for inhibition in vivo at 100 mg/kg: Rattus norvegicus, vs control, read-out: Serum Free Fatty Acid Decrease
Description: as §1

Serum Phospholipid = assay: Hypolipidemic effect: serum phospholipid; format: in vivo, rat (Wistar-strain); details: 100 mg/kg oral, 2 h; for Serum Phospholipid Level: control 79 ± 2 (compounds 2-12), 72 ± 2 (compounds 15-29); for inhibition in vivo at 100 mg/kg: Rattus norvegicus, vs control, read-out: Serum Phospholipid Decrease
Description: as §1

Total Serum Cholesterol = assay: Hypolipidemic effect: total serum cholesterol; format: in vivo, rat (Wistar-strain); details: 100 mg/kg oral, 2 h
Description: as §1

[2] = Rattus norvegicus, Table 2, 100 mg/kg oral, vs control, read-out: Blood Glucose Decrease
[3] = Table 2, 100 mg/kg oral, control 133 ± 6

Row | Compound | LD50 at 168 h [1] [mg/kg] | inhibition in vivo at 12.5 mg/kg (Blood Glucose; Rattus norvegicus, Table 2, 12.5 mg/kg oral, vs control, read-out: Blood Glucose Decrease) [%] | inhibition in vivo at 25 mg/kg (Blood Glucose; Rattus norvegicus, Table 2, 25 mg/kg oral, vs control, read-out: Blood Glucose Decrease) [%] | inhibition in vivo at 50 mg/kg (Blood Glucose; Rattus norvegicus, Table 2, 50 mg/kg oral, vs control, read-out: Blood Glucose Decrease) [%] | inhibition in vivo at 100 mg/kg (Blood Glucose; [2]) [%] | Blood Glucose Level (Blood Glucose; Table 2, 12.5 mg/kg oral, control 133 ± 6) [mg/dL] | Blood Glucose Level (Blood Glucose; Table 2, 25 mg/kg oral, control 133 ± 6) [mg/dL] | Blood Glucose Level (Blood Glucose; Table 2, 50 mg/kg oral, control 133 ± 6) [mg/dL] | Blood Glucose Level (Blood Glucose; [3]) [mg/dL] | Serum Triglyceride Level (Serum Triglyceride) [mg/dL] | inhibition in vivo at 100 mg/kg (Serum Triglyceride) [%] | Serum Free Fatty Acid Level (Serum Free Fatty Acid) [mEq/l] | inhibition in vivo at 100 mg/kg (Serum Free Fatty Acid) [%] | Serum Phospholipid Level (Serum Phospholipid) [mg/dL] | inhibition in vivo at 100 mg/kg (Serum Phospholipid) [%] | inhibition in vivo at 100 mg/kg (Blood Glucose; Rattus norvegicus, Table 3, 100 mg/kg oral, vs control, read-out: Blood Glucose Decrease) [%] | Blood Glucose Level (Blood Glucose; Table 3, 100 mg/kg oral, control 133 ± 4) [mg/dL] | Total Serum Cholesterol Level (Total Serum Cholesterol; control 44 ± 2 (compounds 4-12), 41 ± 1 (compounds 15-29)) [mg/dL] | inhibition in vivo at 100 mg/kg (Total Serum Cholesterol; Rattus norvegicus, vs control, read-out: Total Serum Cholesterol Decrease) [%]
1 | CN1C(=O)NC(=O)C1=O [compound 2, 1-methylimidazolidinetrione] | ~900 | 18 | 25.6 | 31.6 | 25.6 | 109 ± 5 | 99 ± 2 | 91 ± 4 | 99 ± 5 | 22 ± 1 | 66.2 | 0.25 ± 0.03 | 52.8 | 59 ± 1 | 25.3 | – | – | – | –
2 | CCN1C(=O)NC(=O)C1=O [compound 3, 1-ethylimidazolidinetrione] | ~700 | – | – | – | 24.8 | – | – | – | 100 ± 2 | – | – | – | – | – | – | – | – | – | –
3 | O=C1NC(=O)N(Cc2ccccc2)C1=O [compound 15, 1-benzylimidazolidinetrione] | ~1000 | – | – | – | – | – | – | – | – | 30 ± 1 | 47.4 | 0.44 ± 0.02 | 15.4 | 52 ± 1 | 27.8 | 15.8 | 112 ± 3 | 33 ± 1 | 19.5

Reference: US4683240A, “Pharmaceutical composition containing an imidazolidinetrione derivative or pharmaceutically acceptable salt thereof” (Nippon Zoki Pharmaceutical Co., Ltd., priority 1985, dated 1987)
